One data set addresses T1, hKOR (Homo sapiens, UniProt P41145).
T1 construct: expressed in transfected cells; host or cells: Human embryonic kidney cells 293 (293-KOR)
The experiment in a line: Agonistic function, cAMP method, 293-KOR cells. The format is cell-based. Conditions: forskolin. Here is the method:
• a. […] Prepare 8 × drug-containing solution with buffe. • c. […] Incubate for 1 h at room temperature. • j.

The subject of data set [1] is formalin-induced inflammatory pain model. Set-up: species or system SD rats. Conditions: rat, in vivo.
For data set [2], the system named is gastrointestinal peristalsis. Put plainly: Effect on gastrointestinal peristalsis (charcoal propulsion). Conditions: 3 mg/kg, single subcutaneous injection, SD rats.

Where no end group is shown, it is not given here.

T1 sequence (P41145 whole entry): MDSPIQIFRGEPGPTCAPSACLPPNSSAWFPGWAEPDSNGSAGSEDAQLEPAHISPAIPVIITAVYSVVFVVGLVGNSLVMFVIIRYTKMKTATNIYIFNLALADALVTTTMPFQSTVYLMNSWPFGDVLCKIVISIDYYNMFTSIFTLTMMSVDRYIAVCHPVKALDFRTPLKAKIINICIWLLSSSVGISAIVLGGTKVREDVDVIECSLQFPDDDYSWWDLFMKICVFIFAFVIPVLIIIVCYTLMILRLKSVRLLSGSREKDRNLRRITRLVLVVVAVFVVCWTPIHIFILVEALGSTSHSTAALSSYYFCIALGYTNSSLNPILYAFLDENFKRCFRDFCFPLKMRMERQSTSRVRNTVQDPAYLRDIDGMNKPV

The EC50 is the concentration that produces a half-maximal response. The low end stands for higher potency in that assay, the high end for lower potency in that assay. In general, Emax refers to the size of the effect at its maximum, as opposed to the concentration needed. On hKOR, YGGFLRRIRP [Dynorphin A1-10] displayed an EC50 of 0.65 nM and an Emax of 102%.

For `CN1CC[C@]23c4c5ccc(O)c4O[C@H]2[C@@H](O)C=C[C@H]3[C@H]1C5` [Morphine], in data set [1], the MPE% stood at 75.9±28.9 %. Besides, the “effect on the gastrointestinal peristalsis in rats (charcoal propulsion rate)” value in data set [2] was “significant inhibitory effect”.

These data come from patent EP4768477A1 (Yichang Humanwell Pharmaceutical Co., Ltd., priority 2024, dated 2025).
